Reference: US12019083B2, “Compound distribution in microfluidic devices” (EMULATE, Inc., priority 2019, dated 2024)
Entries after “also recorded” stand apart in the source; their conditions may differ.

Columns and labels:
[1] = recovered concentration compared to dosing concentration
Text: Curve-fit the measured data to quantify the absorption and diffusion parameters.

[2] = Time-dependent material absorption test in vials, PDMS; assay type: physicochemical; conditions: for absorption into PDMS: recovered concentration compared to dosing concentration
Experimental: (§1) A method for ascertaining the absorption of a specific small-molecule into a polymer was developed. The output of this method are the fundamental parameters that fully define the absorption of a specific compound into the material tested; specifically, the diffusivity and partition coefficient are ascertained. […] The steps for ascertaining this absorption is as follows: • 1. Dissolve the small molecule in an aqueous phase (medium) and incubate the solution (30) with the tested material (31), such as in a vial (29). The incubation should be long enough so that diffusion is not limiting absorption and the transport into the material is at equilibrium with the transport of the compound out of the material and into the aqueous phase. • 2. Sample media from the vials at a number of time points. • 3. Measure the concentration of the small molecule remaining in the aqueous phase (30) using a mass spectrometer, plate reader, etc. from the media sampled. • 4. Curve-fit the measured data to quantify the absorption and diffusion parameters.
(§2) Each experiment includes a number of controls and test conditions. Using multiple controls and test conditions allows absorption to the vial and well-plate to be characterized, as well as absorption versus adsorption to the tested material, as well as yielding the time-dependent nature of absorption into the material. […] The goals of the experiments are to directly quantify partitioning of the compound, or compound loss at equilibrium (kinetics), and to directly quantify diffusion of the compound, or time-dependent compound loss (dynamics).
(§3) Single time point experiments are only capable of extracting kinetics, not dynamics. Time-dependent studies capture not only equilibrium endpoints (K), but also time-dependent changes/dynamics (D). One-dimensional computational models are used to fit experimental results of time-dependent studies. […] Once the particular curve is known, the parameters which defined that curve are taken as the fundamental parameters defining the material-compound absorptive interaction.

[3] = Time-dependent material absorption test in vials, SEBS; assay type: physicochemical; conditions: for absorption into SEBS: recovered concentration compared to dosing concentration
Experimental: as §1, §2, §3

[4] = Flow absorption study in PDMS microfluidic device / compound distribution kit; assay type: physicochemical
Text: An exemplary method may follow the method of an intended experiment or study. As an example, the compound distribution kit may be used with microfluidic devices. An exemplary method for use with microfluidic devices may follow an intended study method with the following changes: no coatings, no cell seeding, and reduced number of compound doses. In one embodiment, there may not be a need to perform coatings on the microfluidic device that are related to biological aspects of the experiment. Some coatings, such as those that change the chemistry of the microfluidic device material makeup, may need to be done, especially if they may affect compound absorbency. It one embodiment, coatings are done with the compound distribution kit at the discretion of the user. In one embodiment, cell seeding is not needed. In one embodiment, if the intended-study protocol compares several concentrations of a test compound, the absorption control experiment need only be run for one of these concentrations. In one embodiment, it is recommended to use the highest compound concentration planned for the intended study, in order to maximize quantification (e.g. LCMS) sensitivity. However, a lower concentration of test compound may be selected if there are concerns about the compound's solubility limits or it crashing out of solution at the higher concentration. Crashing out of solution is when the concentration of a solute in a solution reaches a point where the solute precipitates. In one embodiment, the compound is dosed for the same duration, at the same flow rate, in the same microfluidic channel(s) as per the intended protocol, experiment or study. That is, if the intended study specifies dosing only in a first channel, with no compound in a second channel, then the same method would be applied during the use of the compound distribution kit. In one embodiment, media and solution should be the same during use of the compound distribution kit as in the intended study. In one embodiment, the same media or solution, as well as any additives or supplements, as medium composition and additives can interact with test compounds (e.g. protein binding). In one embodiment, media or solutions should also be equilibrated in the same manner, such as degassing and preheating. In one embodiment, effluent samples taken during use of the compound distribution kit should be collected at the same time as the intended study. Compound distribution can be a highly dynamic process, and as such matching time points may be able to ensure that the results of the compound distribution kit correspond closely to the intended study. […]

[5] = First round absorption study on Parylene coated SEBS and PDMS gaskets (plate reader); assay type: physicochemical; conditions: coating thickness 2 μm and 8 μm; exposure 0, 14, 40 and 72 hours
Text: Two quantitative studies were run on Parylene coated materials in order to assess its effectiveness in minimizing small molecule absorbency. In the first study Parylene coated SEBS and Parylene coated PDMS were both exposed to Rhodamine B and Coumarin. In the second study the absorption of Parylene coated SEBS and Parylene coated E140 were compared to the absorption of known low-absorbing materials, such as glass and COP.
In the first round of absorption studies, SEBS and PDMS gaskets were coated with Parylene at two thicknesses: 2 μm and 8 μm. Parylene-coated gaskets were exposed to Rhodamine B and Coumarin for 0, 14, 40 and 72 hours. The remaining concentration of Rhodamine B and Coumarin in the exposure solution were measured on a plate reader. Each condition was tested on two gaskets. Limited replicates were available due to the number of conditions run. This “shotgun approach” was used in order to try many coating conditions and quickly determine the best options. […] FIG. 33B depicts the fraction of Rhodamine B recovered from the solutions for coatings of varying thickness on two materials known to absorb. […] One observation from the experiment was that the Parylene may crack, leading to gasket absorption. Another observation from the experiment was that Parylene adhesion to the PDMS and SEBS was poor, resulting in easy removal of Parylene. […]

[6] = Second round absorption study: Parylene coated SEBS and E140 compared with glass, COP and control solution; assay type: physicochemical
Text: Two quantitative studies were run on Parylene coated materials in order to assess its effectiveness in minimizing small molecule absorbency. In the first study Parylene coated SEBS and Parylene coated PDMS were both exposed to Rhodamine B and Coumarin. In the second study the absorption of Parylene coated SEBS and Parylene coated […] were compared to the absorption of known low-absorbing materials, such as glass and COP. In the second round of absorption studies, after parylene-coating process optimization, the absorption of Parylene coated SEBS and Parylene coated […] were compared to both the absorption of known low-absorbing materials, such as glass and COP, and a control solution of the drug not in contact with a material. The coated materials were exposed to a solution carrying a known concentration of the drug, Coumarin. The solution was tested three times to quantify the remaining concentration of the Coumarin, before exposure to the material, at 22 hours and at 92 hours. […] SEBS absorbed more of the compound than […].

[7] = Flow study of microfluidic device in fluidic communication with perfusion manifold assembly; assay type: physicochemical
Text: FIGS. 98A and 98B show a comparison between a computational (COMSOL) model results and actual experimental results for cellular exposure ranges of the small-molecule compound Coumarin. […] For this experiment the microfluidic device was in fluidic communication with a perfusion manifold assembly. […] FIGS. 99A and 99B show a comparison between a computational (COMSOL) model results and actual experimental results for cellular exposure ranges of the small-molecule compound Coumarin. […] For this experiment the microfluidic device was in fluidic communication with a perfusion manifold assembly.

[8] = Fluorescent imaging of Parylene-coated gaskets exposed to Rhodamine B; assay type: physicochemical
Text: Parylene-coated PDMS gaskets were exposed to the fluorescent molecule Rhodamine B and fluorescently imaged. […] However, the absorption is primarily localized to areas with sharp corners. […] Parylene-coated SEBS gaskets were exposed to the fluorescent molecule Rhodamine B and fluorescently imaged as well. […] However, the absorption is primarily localized to areas with sharp corners. Some absorption can be seen inside of the via, but it was minimal, difficult to visualize, and quite possibly an optical artifact unrelated to absorption.

[9] = Fluorescent molecule absorption in perfusion manifold assemblies under flow; assay type: physicochemical; conditions: 30 μL/hr for 38 hours
Experimental: Fluorescent molecule Rhodamine B (a fluorescent molecule that is also moderately absorbing into PDMS and SEBS) was dissolved in a buffer, flowed through a perfusion manifold assembly (14) and absorbing microfluidic device (12) fabricated out of PDMS at 30 μL/hr for 38 hours on a culture module. The perfusion manifold assemblies (14) were rinsed with buffer not containing the fluorescent molecule at 200 μL/hr for an hour before the start of the experiment.
Following the experiment, the perfusion manifold assemblies (14) were disassembled and the vias (35) of the capping, gasketing and backplane assembly or fluidic layer assembly (34), as well as the perfusion manifold assembly (14) resistors (27), were imaged with fluorescent microscopy. FIG. 25A depicts the resulting fluorescence in the fluidic layer assembly (34) of an absorbing perfusion manifold assembly (14) comprising a combined gasketing and capping layer (26). FIG. 25B depicts the resulting fluorescence on one aspect the invention described herein, a low-absorbing perfusion manifold assembly comprising both a low-absorbing capping and low-absorbing gasketing layer. In the embodiment of the perfusion manifold assembly (14) used in the experiment, the capping layer was fabricated from COP and the gasketing layer was fabricated out of SEBS coated with Parylene. Bright white colors in FIGS. 25A and 25B correlate to greater degree of absorption of the fluorescent molecule Rhodamine B.

[10] = tested before exposure, at 22 hours and at 92 hours

## CCc1cccc2cc(C(O)CNC(C)(C)C)oc12 (stereo not shown) [Bufuralol]
[1]
  absorption into glass, polypropylene, polystyrene or COP: did not absorb significantly
[2]
  PDMS partition value (K): greater than 216
  absorption into PDMS: absorbed almost entirely
[2]; LCMS
  recovered concentration from the PDMS experiments: below the lower limit of detection
[3]
  SEBS partition value (K): 4.77
  absorption into SEBS: absorbed somewhat

## C=C(C)[C@@H]1CCC(C)=C[C@H]1c1c(O)cc(CCCCC)cc1O [CBD, cannabidiol]
[4]; microfluidic device fabricated entirely from PDMS
  measured outlet concentrations of the compound: 0
[4]; several flow rates, even at the highest flow rate
  absorption or loss of compound in microfluidic device fabricated from entirely PDMS: complete/total absorption or loss of compound

## O=c1ccc2ccccc2o1 [Coumarin]
[4]; 60 μL/hr versus 150 μL/hr, bottom channel sampled
  effect of flow rate on absorption into PDMS: less compound is absorbed into PDMS at faster flow rates
[5]
  absorption by Parylene coated PDMS and SEBS: some Coumarin was absorbed
[6]; Parylene coated SEBS and E140, 22 and 92 hours
  absorption into materials coated with Parylene: do not absorb significant amounts
[6]; [10]
  absorption into glass and COP compared to control solution: did not absorb
  absorption into uncoated SEBS and E140: both absorb; also recorded: SEBS absorbed more of the compound than E140
[7]
  absorption into SEBS of the perfusion manifold assembly: especially susceptible to absorption

## CN1C(=O)CN=C(c2ccccc2)c2cc(Cl)ccc21 [Diazepam]
[2]; by hour 12 of contact with PDMS
  fraction of Diazepam absorbed by PDMS: ⅔ and two thirds

## Cc1ncc2n1-c1ccc(Cl)cc1C(c1ccccc1F)=NC2 [Midazolam]
[1]
  absorption into glass, polypropylene, polystyrene or COP: did not absorb significantly
[2]
  PDMS partition value (K): 201
  absorption into PDMS: absorbed significantly
[3]
  SEBS partition value (K): 4.05
  absorption into SEBS: absorbed somewhat

## CCN(CC)c1ccc2c(-c3ccccc3C(=O)O)c3ccc(=[N+](CC)CC)cc-3oc2c1 [Rhodamine B]
[4]; flow study outlet concentrations
  rate and extent of absorption: lower rate of absorption, but higher extent of absorption
[5]
  absorption by Parylene coated PDMS and SEBS: minimal Rhodamine B was absorbed
[8]
  absorption in Parylene-coated SEBS gaskets (microscopy): some minimal absorption is present
[8]; ports leading into the channels
  absorption within the microfluidic device ports of Parylene-coated PDMS gaskets: No absorption was seen
[8]; whole gasket
  absorption in Parylene-coated PDMS gaskets (microscopy): some absorption is present but localized to areas that might not have been fully coated
[9]
  absorption in perfusion manifold assemblies with COP capping layer and Parylene coated SEBS gasketing layer: did not absorb a significant amount
  absorption in perfusion manifold assembly with COP capping layer and non-coated SEBS gasketing layer: absorbed the fluorescent molecule
  absorption in perfusion manifold assembly with combined gasketing and capping layer: absorbed the fluorescent molecule
  absorption in resistors capped with COP: very little
  absorption in resistors capped with SEBS: relatively high extent

## CN(C)CCC=C1c2ccccc2CCc2ccccc21 [amitriptyline]
[2]
  absorption into PDMS: absorb into PDMS
